Like-named read-outs stand apart in the source and are kept apart here.
Key:
Format in all cases: cell-based
CRC1414 = assay: Viability of primary patient-derived colorectal cancer cell line
CRC1463 = assay: as above
HCT116 cells [1] = assay: Proliferation assay (CellTiter-Glo); details: 10 μM daily
Method: HCT 116 cells were seeded as 3,000 cells in 100 μL growth medium per well in 96-well plates (Corning cat. #3903) and allowed to attached overnight. Cells were then treated continuously with compounds at a final concentration of 10 μM, 0.1% DMSO, for 4 days with daily medium change. Cell proliferation each day was determined using CellTiter-Glo luminescent cell viability assay (Promega cat. #G7573) according to the manufacturer's protocol.

CRC2001 = assay: Viability of primary patient-derived colorectal cancer cell line
CRC2440 = assay: as above
CRC1775 = assay: as above
CRC1850 = assay: as above; details: CRC1850, Liver Met
CRC1258 = assay: as above; details: CRC1258, Liver Met
CRC2413 = assay: as above
CRC2367 = assay: as above
CRC1846 = assay: as above
CRC2255 = assay: as above
CRC1671 = assay: as above
CRC2423 = assay: as above
CRC1489 = assay: as above
CRC1707 = assay: as above
CRC1177 = assay: as above
CRC1837 = assay: as above; details: CRC1837, Liver Met
CRC948 = assay: as above
[2] = tested on: Wnt target genes in HCT116 CRC cells; assay: Expression of beta-catenin (CTNNB1) and Wnt target genes in HCT116 CRC cells
Method: The effects of the GB1874 analogues were tested on the expression of Wnt target genes in HCT116 CRC cells.

STF cells = assay: Viability (toxicity) of STF reporter cells, CCK-8; details: Table 3; STF reporter cell line
Method: (§1) The Wnt STF reporter cells were seeded as 20,000 cells in 100 μL culture medium per well in 96-well plates (Corning cat. #3903, Falcon cat. #353072). The next day, 5-fold dilutions of the compounds in DMSO were added to the cells at a final concentration of 1% DMSO. The cells were also stimulated with 500 ng/mL recombinant human Wnt3A (RnD systems, cat. #5036-WN-010). After 24 hr incubation, the viability of the cells was determined with cell counting kit-8 (CCK-8, Dojindo cat. #CK04) cell viability reagent according to the manufacturer's protocol while the TOPFlash reporter activity was determined with Steady-Glo luciferase reagent.
(§2) The average signal from DMSO treated wells was calculated for each plate, and the signal from each treatment well was normalized against the average DMSO signal from the respective plate. The normalized values were plotted against the concentrations tested using GraphPad Prism 5, and the EC50 values were determined through either three- or four-parameter nonlinear regression.

[3] = tested on: Wnt signalling (TOPFlash reporter, STF cells); assay: Wnt STF TOPFlash reporter dose response (Wnt3A-stimulated)
Method: (§3) Wnt STF reporter cells (HEK 293 cells stably transfected with TOPFlash reporter) and STF3A reporter cells (STF cells with constitutive secretion of Wnt3A) were kind gifts from David Virshup (Duke-NUS Graduate Medical School, Singapore). HCT116, DLD-1, and SW480 cell lines were obtained from ATCC. The Hippo pathway TEAD reporter (cat. #60618) and Myc signalling pathway reporter (cat. #60520) cells lines were purchased from BPS Bioscience, Inc.
as §1, §2

[4] = tested on: Wnt signalling (TOPFlash reporter, STF3A cells); assay: Wnt STF3A TOPFlash reporter dose response (constitutive Wnt3A)
Method: as §3
as §1, with “STF3A” for “STF”, “DMSO.” for “DMSO. The cells were also stimulated with 500 ng/mL recombinant human Wnt3A (RnD systems, cat. #5036-WN-010).”
as §2

STF3A cells = assay: Viability (toxicity) of STF3A reporter cells, CCK-8; details: Table 3; STF3A reporter cell line
Method: as §1, with “STF3A” for “STF”, “DMSO.” for “DMSO. The cells were also stimulated with 500 ng/mL recombinant human Wnt3A (RnD systems, cat. #5036-WN-010).”
as §2

HCT116 cells [5] = assay: Dose response viability of CRC cells (CellTiter-Glo); details: Homo sapiens, HCT-116, 24 hr
Method: (§4) HCT116, DLD-1, and SW480 cells were seeded as 5,000 cells in 100 μL growth medium per well in 96-well plates (Corning cat. #3903). The next day, 5-fold dilutions of the compounds in DMSO were added to the cells at a final concentration of 1% DMSO. After 24 hr incubation, the viability of the cells was determined with CellTiter-Glo luminescent cell viability reagent (Promega cat. #G7573) according to the manufacturer's protocol.
as §2

DLD-1 cells = assay: as above; details: Homo sapiens, 24 hr
Method: as §4, §2

SW480 cells = assay: as above; details: Homo sapiens, 24 hr
Method: as §4, §2

[6] = tested on: Myc reporter (Luc)-HCT116 cells; assay: Myc signalling reporter dose response; details: Homo sapiens, HCT-116, 24 hr
Method: (§5) The Myc reporter (Luc)-HCT116 cells were seeded as 25,000 cells in 100 μL assay medium per well in 96-well plates (Corning cat. #3903, Falcon cat. #353072). The assay medium consists of the growth medium without G-418. The next day, 4-fold dilutions of the compounds in DMSO were added to the cells at a final concentration of 1% DMSO. After 24 hr incubation, the viability of the cells was determined with PrestoBlue cell viability reagent while the luciferase reporter activity was determined with Steady-Glo luciferase reagent.
as §2

[7] = tested on: Hippo pathway TEAD reporter cells; assay: Hippo signalling TEAD reporter dose response; details: 24 hr, activation of the Hippo pathway (decrease of reporter signal)
Method: as §5, with “Hippo TEAD” for “Myc”, “reporter” for “reporter (Luc)-HCT116”, “100,000” for “25,000”, “5-fold” for “4-fold”, “CCK-8” for “PrestoBlue”
as §2

[8] = Table 3, STF reporter cell line, read-out: STF Inhibition IC50
[9] = Table 3, STF3A reporter cell line, read-out: STF3A Inhibition IC50

SMILES	IC50 [3, 8] [µM]	IC50 [4, 9] [µM]	beta-catenin (CTNNB1) gene expression [2]	expression of Wnt target genes AXIN2, BIRC5, BMP4, CCND1 [2]	IC50 (STF cells) [µM]	IC50 (STF3A cells) [µM]	other results
Oc1nc(-c2ccc(C(F)(F)F)cc2)nc2c1CSCC2 [XAV939, reference compound]	–	–	–	–	–	–	EC50 (CRC1414): > 250 µM; EC50 (CRC1463): 250 µM; growth of HCT116 cells (HCT116 cells [1]): less effective at inhibiting the growth of HCT116 cells; EC50 (CRC2001): > 250 µM; EC50 (CRC2440): 75 µM; EC50 (CRC1775): > 250 µM; EC50 (CRC1850): 208 µM; EC50 (CRC1258): 70 µM; EC50 (CRC2413): 200 µM; EC50 (CRC2367): > 250 µM; EC50 (CRC1846): 239 µM; EC50 (CRC2255): > 250 µM; EC50 (CRC1671): > 250 µM; EC50 (CRC2423): 250 µM; EC50 (CRC1489): 105 µM; EC50 (CRC1707): 135 µM; EC50 (CRC1177): 250 µM; EC50 (CRC1837): > 250 µM; EC50 (CRC948): > 250 µM
CCOC(=O)C(C)(C)Sc1nnc(COc2ccccc2)n1Cc1ccccc1 [GB1874E]	12	16	lesser effect	potently inhibit Wnt target genes	71	100	–
Cc1ccccc1OCc1nnc(SCCSc2nnc(COc3ccccc3C)n2Cc2ccccc2)n1Cc1ccccc1 [GB1874A]	28	1.2	–	–	> 100	> 100	–
CC1CCCC(C)N1C(=O)CSc1nnc(COc2ccccc2)n1Cc1ccccc1 (stereo not drawn) [GB1874C]	7.6	46	lesser effect	potently inhibit Wnt target genes	76	78	–
CCOc1ccc(C(=O)CSc2nnc(COc3ccccc3)n2Cc2ccccc2)cc1 [GB1874D]	21	21	–	–	> 100	25	–
CCc1ccc(-c2nc(CSCC(=O)NCCc3ccccc3)c(C)o2)cc1 [iCRT3, reference compound]	11	42	lesser effect	potently inhibit Wnt target genes	88	74	EC50 (HCT116 cells [5]): 39 µM; EC50 (DLD-1 cells): 48 µM; EC50 (SW480 cells): 64 µM; IC50 [6]: 50 µM; IC50 ([3]; Table 1, STF reporter cells, 500 ng/mL Wnt3A, 24 hr, read-out: IC50 Wnt (STF)): 27 µM; IC50 ([4]; Table 1, STF3A reporter cells, 24 hr, read-out: IC50 Wnt (STF3A)): 64 µM; IC50 Hippo (activation) [7]: activated; IC50 ([7]; read-out: IC50 Hippo (activation)): 1.6 µM
Cc1ccc2nc(NC(=O)CSc3nc4c(c(=O)n3-c3ccccc3)SCC4)sc2c1 [IWP-2]	–	–	–	–	–	–	growth of HCT116 cells (HCT116 cells [1]): less effective at inhibiting the growth of HCT116 cells
O=C(CSc1nnc(Cc2ccccc2)n1Cc1ccco1)NC1CCCC1 [GB1874B]	48	> 100	–	–	> 100	> 100	–

Now from value to compound, other results behind:

IC50 [3, 8] [µM]	IC50 [4, 9] [µM]	SMILES	beta-catenin (CTNNB1) gene expression [2]	expression of Wnt target genes AXIN2, BIRC5, BMP4, CCND1 [2]	IC50 (STF cells) [µM]	IC50 (STF3A cells) [µM]	other results
5.4	10	Cc1ccc(OCc2nnc(SCC(=O)c3ccc(-c4ccccc4)cc3)n2Cc2ccco2)cc1 [GB1874F]	lesser effect	potently inhibit Wnt target genes	100	> 100	IC50 ([3]; unit M, read-out: STF IC50): 5.4 µM
5	11	CCc1ccc(OCc2nnc(SC3CCCCC3=O)n2C(C)c2ccccc2)cc1 (stereo not drawn) [GB1874H]	lesser effect	potently inhibit Wnt target genes	49	46	–
3.9	6.7	CCc1ccc(OCc2nnc(SC(C)C(=O)C3C4CC5CC(C4)CC3C5)n2Cc2ccccc2)cc1 (stereo not drawn) [GB1874G]	lesser effect	potently inhibit Wnt target genes	> 100	> 100	IC50 ([3]; unit M, read-out: STF IC50): 3.9 µM
